Data taken from patent publication EP0343223B1, “USE OF MELATONIN OR DERIVATIVES THEREOF FOR THE PRODUCTION OF PHARMACEUTICAL COMPOSITIONS EFFECTIVE TO COUNTERACT THE EFFECTS OF AGING” (priority 1987, dated 1989).

Experiments:
Assay type in all cases: in vivo
[1] = test system: T3 and T4; assay: T3 and T4 by radioimmunoassay in serum of aging mice after chronic night melatonin in drinking water
Text: It can be seen (Table 1) that chronical treatment with melatonin in the drinking water in aging mice elevates the levels of T3 ([…]) and T4 (tyroxine) in their peripheral blood and corrects thus ageing-related thyroid dysfunction or lowered function.

[2] = test system: C57BL/6J inbred male mice; assay: Nocturnal oral melatonin in the drinking water of aging mice: life span and body weight
Experimental: Experiments were initiated in 1985 in which groups of C57BL/6J inbred male mice, aged 575 days (10 mice per group), were given melatonin (10 µg/ml) in the drinking water while the controls received tap water containing the same amount of absolute ethanol used to prepare melatonin stock solution (1 ml ethanol in 10 liters of tap water). The drinking water with or without melatonin was given at 6 p.m. and removed at 8.30 a.m. The drinking water was changed twice weekly. Starting at 5 months after initiation of the nocturnal, oral melatonin treatment, when the mice reached two years of age, a striking difference of body weight and of general body and pelage conditions started to be evident. Although some of the mice died earlier in both groups, the majority of the surviving mice treated with melatonin maintained their optimal body weight until 28 to 33 months of age (35.8± 4 grams) while the untreated mice lost progressively weight and were all dead within 29 months of age. Average body weight of the control mice at 27 months of age was 27.8± 4 grams.
The last melatonin-treated mouse died at 3 years of age. These date though preliminary make it evident that melatonin treatment of aging mice prolonged their life or circa 20 percent (average 6 months longer). The life span of melatonin-treated mice was 931 ± 80 days while that of control mice was 755 ± 81 days (p < 0.01).

[3] = test system: lipids in blood; assay: Lipids in blood of aging mice after chronic night melatonin treatment; details: data not shown
Text: It follows that the increase of the production of thyroid hormones induced in vivo by exogenous melatonin should also be accompanied by an improved degradation of cholesterol, triglycerides and phospholipids and by detoxification effects at the liver level, all these beneficial effects resulting in a slowing down of the aging process.

[4] = C3H/He female, age 23 months, 3 months of melatonin treatment
[5] = C3H/He female, age 23 months, 3 months of melatonin treatment, serum
[6] = C57BL/6 female, age 22 months, 5 months of melatonin treatment

`COc1ccc2[nH]cc(CCNC(C)=O)c2c1` [melatonin] was tested, and the “T3 change vs untreated” value [1, 4] was “+25%”, the T4/T3 [1, 4] was 42.47 and the “T4/T3 change vs untreated” value [1, 4] was “+18%”. For the same compound, the “T4 change vs untreated” value [1, 4] was “+34%”, the T3 [1, 5] was 0.664± 0.137 and the T4 [1, 5] was 28.2± 0.8. The “T3 change vs untreated” value [1, 6] was “+11%”, the T4/T3 [1, 6] was 54.27 and the “T4/T3 change vs untreated” value [1, 6] was “+10%”. For the same compound, the “T4 change vs untreated” value [1, 6] was “+20%”, the T3 ([1]; C57BL/6 female, age 22 months, 5 months of melatonin treatment, serum) was 0.691± 0.077 and the “age at death of the last melatonin-treated mouse” value ([2]; C57BL/6J male mice) was 3 years. The life span ([2]; C57BL/6J male mice, melatonin 10 µg/ml in drinking water 6 p.m. to 8.30 a.m., from 575 days of age, p < 0.01 vs control) was 931 ± 80 days, the body weight ([2]; surviving melatonin-treated mice, maintained until 28 to 33 months of age, 10 µg/ml in drinking water at night, started at 575 days of age) was 35.8± 4 grams and the “average life prolongation (longer)” value ([2]; versus control mice) was 6 months. For the same compound, the prolonged their life ([2]; versus control mice) was “circa 20%” and the “aging-related increase of lipids in blood” value [3] was “corrects the aging-related increase of lipids in blood”.
